Values of other authors in US5744472A, “1-(N'-(arylalkylaminoalkyl)) aminoisoindoles; a new class of dopamine receptor subtype specific ligands” (Neurogen Corporation, priority 1995, dated 1998).
Like-named read-outs stand apart in the source and are kept apart here. Values belong to the molecule of their own block, whether it stands above or below them.

Assays:
[1] = tested on: extrapyramidal side effects (EPS)
[2] = tested on: D1 dopamine receptor; settings: background statement
[3] = tested on: D2 receptors; settings: background statement

Structure (SMILES): CN1CCN(C2=Nc3cc(Cl)ccc3Nc3ccccc32)CC1 [clozapine]
incidence of extrapyramidal side effects ([1]; compared with classical neuroleptics, background statement): lesser incidence of extrapyramidal side effects (EPS) than classical neuroleptics

binding at the D1 dopamine receptor [2]: binds relatively weakly
binding affinity at D2 receptors [3]: subnanomolar range
Structure (SMILES): O=C(CCCN1CCC(O)(c2ccc(Cl)cc2)CC1)c1ccc(F)cc1 [haloperidol]

Structure (SMILES): CCN1CCCC1CNC(=O)c1cc(S(N)(=O)=O)ccc1OC (stereo not shown) [sulpiride]
incidence of extrapyramidal side effects ([1]; in vivo): lesser incidence of extrapyramidal side effects (EPS) than classical neuroleptics
